Experimental data from article PMC8362001 (Angewandte Chemie (International Ed. in English), 2021).

What was measured:
[1] = Hydrolysis of the P−N bond under acidic conditions; format: physicochemical; details: slightly acidic conditions (pH≤3)
eGFP (C70M S147C) = eGFP (C70M S147C) (Aequorea victoria, UniProt P42212, C70M/F64L/H231L/S147C/S65T); experiment: Second-order rate constant of the reaction with eGFP, intact protein MS; details: one equivalent of eGFP (C70M S147C), Tris buffer pH 8.3, 90 μM, room temperature, eGFP C70M as internal standard, triplicate

## C#CP(=O)(C#C)N(CC)CC [II]
[1]
  Hydrolytic stability of the P−N bond: rapid hydrolysis of the P−N bond

## C#CCCOP(=O)(C#C)C#C [compound 2]
eGFP (C70M S147C)
  second‐order rate constant: approximately 0.47 M^−1 s^−1
